What was measured:
[1] = system: barnyardgrass; experiment: Test C preemergence; format: in vivo, Echinochloa crusgalli; details: 0 to 100 scale (0 no effect, 100 complete control)
Outline: (§1)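 Greenhouse herbicide screen, 10-day duration. Test chemicals in solvent/surfactant blend were sprayed onto soil at sowing (pre) or onto 2–10 cm seedlings at one to two leaves (post); injury scored visually against controls, 0 no effect to 100 complete control.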

[2] = system: blackgrass; experiment: Test C preemergence; format: in vivo, Alopecurus myosuroides; details: 0 to 100 scale (0 no effect, 100 complete control)
Outline: as §1

[3] = system: corn; experiment: Test C preemergence; format: in vivo, Zea mays; details: 0 to 100 scale (0 no effect, 100 complete control)
Outline: as §1

[4] = system: green foxtail; experiment: Test C preemergence; format: in vivo, Setaria viridis; details: 0 to 100 scale (0 no effect, 100 complete control)
Outline: as §1

[5] = system: kochia; experiment: Test C preemergence; format: in vivo, Bassia scoparia; details: 0 to 100 scale (0 no effect, 100 complete control)
Outline: as §1

[6] = system: oat, wild; experiment: Test C preemergence; format: in vivo, Avena fatua; details: 0 to 100 scale (0 no effect, 100 complete control)
Outline: as §1

[7] = system: pigweed, palmer; experiment: Test C preemergence; format: in vivo, Amaranthus palmeri; details: 0 to 100 scale (0 no effect, 100 complete control)
Outline: as §1

[8] = system: ragweed; experiment: Test C preemergence; format: in vivo, Ambrosia artemisiifolia; details: 0 to 100 scale (0 no effect, 100 complete control)
Outline: as §1

[9] = system: ryegrass, Italian; experiment: Test C preemergence; format: in vivo, Lolium multiflorum; details: 0 to 100 scale (0 no effect, 100 complete control)
Outline: as §1

[10] = system: soybean; experiment: Test C preemergence; format: in vivo, Glycine max; details: 0 to 100 scale (0 no effect, 100 complete control)
Outline: as §1

[11] = system: wheat; experiment: Test C preemergence; format: in vivo, Triticum aestivum; details: 0 to 100 scale (0 no effect, 100 complete control)
Outline: as §1

[12] = system: barnyardgrass; experiment: Test C postemergence; format: in vivo, Echinochloa crusgalli; details: 10 days
Outline: as §1

[13] = system: blackgrass; experiment: Test C postemergence; format: in vivo, Alopecurus myosuroides; details: 10 days
Outline: as §1

[14] = system: corn; experiment: Test C postemergence; format: in vivo, Zea mays; details: 10 days
Outline: as §1

[15] = system: green foxtail; experiment: Test C postemergence; format: in vivo, Setaria viridis; details: 10 days
Outline: as §1

[16] = system: kochia; experiment: Test C postemergence; format: in vivo, Bassia scoparia; details: 10 days
Outline: as §1

[17] = system: oat, wild; experiment: Test C postemergence; format: in vivo, Avena fatua; details: 10 days
Outline: as §1

[18] = system: pigweed, palmer; experiment: Test C postemergence; format: in vivo, Amaranthus palmeri; details: 10 days
Outline: as §1

[19] = system: ragweed; experiment: Test C postemergence; format: in vivo, Ambrosia artemisiifolia; details: 10 days
Outline: as §1

[20] = system: ryegrass, Italian; experiment: Test C postemergence; format: in vivo, Lolium multiflorum; details: 10 days
Outline: as §1

[21] = system: soybean; experiment: Test C postemergence; format: in vivo, Glycine max; details: 10 days
Outline: as §1

[22] = system: wheat; experiment: Test C postemergence; format: in vivo, Triticum aestivum; details: 10 days
Outline: as §1

[23] = system: horseweed; experiment: Test C postemergence; format: in vivo, Erigeron canadensis; details: 10 days
Outline: as §1

[24] = system: barnyardgrass; experiment: Test D flooded paddy test; format: in vivo, Echinochloa crus-galli; details: 250 g ai/ha, applied to paddy water, visual rating after 13 to 14 days, scale 0 to 100 (0 no effect, 100 complete control)
Outline: (§2)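 Compounds go straight into paddy water over 2-leaf plants in pots flooded to 3 cm. Greenhouse holding lasts 13 to 14 days. Injury is scored by eye against controls from 0 (none) to 100 (complete control).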

[25] = system: ducksalad; experiment: Test D flooded paddy test; format: in vivo, Heteranthera limosa; details: 250 g ai/ha, applied to paddy water, visual rating after 13 to 14 days, scale 0 to 100 (0 no effect, 100 complete control)
Outline: as §2

[26] = system: rice; experiment: Test D flooded paddy test; format: in vivo, Oryza sativa; details: 250 g ai/ha, applied to paddy water, visual rating after 13 to 14 days, scale 0 to 100 (0 no effect, 100 complete control)
Outline: as §2

[27] = system: sedge, umbrella; experiment: Test D flooded paddy test; format: in vivo, Cyperus difformis; details: 250 g ai/ha, applied to paddy water, visual rating after 13 to 14 days, scale 0 to 100 (0 no effect, 100 complete control)
Outline: as §2

[28] = Preemergence, 500 g ai/ha, visual rating after 10 days
[29] = Test C, preemergence, 125 g ai/ha
[30] = 125 g ai/ha, postemergence, 0 to 100 scale, 0 no effect, 100 complete control
[31] = Postemergence, 500 g ai/ha, visual 0 to 100 scale (0 no effect, 100 complete control)

## COc1cc(C(=O)N2C[C@H](C)Oc3c(Cl)cccc32)cc(-n2cnc(C(C)(C)C)n2)c1 [Compound 213]
[1]; [28]
  Plant response rating, Barnyardgrass: 100
[1]; [29]
  Barnyardgrass plant response rating: 60
[2]; [28]
  Plant response rating, Blackgrass: 80
[2]; [29]
  Blackgrass plant response rating: 60
[3]; [28]
  Plant response rating, Corn: 10
[3]; [29]
  Corn plant response rating: 0
[4]; [28]
  Plant response rating, Foxtail, Green: 100
[4]; [29]
  Foxtail, Green plant response rating: 100
[5]; [28]
  Plant response rating, Kochia: 100
[5]; [29]
  Kochia plant response rating: 30
[6]; [28]
  Plant response rating, Oat, Wild: 70
[6]; [29]
  Oat, Wild plant response rating: 10
[7]; [28]
  Plant response rating, Pigweed, Palmer: 100
[7]; [29]
  Pigweed, Palmer plant response rating: 100
[8]; [28]
  Plant response rating, Ragweed: 30
[8]; [29]
  Ragweed plant response rating: 0
[9]; [28]
  Plant response rating, Ryegrass, Italian: 90
[9]; [29]
  Ryegrass, Italian plant response rating: 90
[10]; [28]
  Plant response rating, Soybean: 100
[10]; [29]
  Soybean plant response rating: 50
[11]; [28]
  Plant response rating, Wheat: 90
[11]; [29]
  Wheat plant response rating: 10
[12]; [30]
  Plant response rating, Barnyardgrass: 20
[12]; [31]
  Plant response rating, Barnyardgrass: 30
[13]; [30]
  Plant response rating, Blackgrass: 0
[13]; [31]
  Plant response rating, Blackgrass: 70
[14]; [30]
  Plant response rating, Corn: 10
[14]; [31]
  Plant response rating, Corn: 20
[15]; [30]
  Plant response rating, Foxtail, Green: 40
[15]; [31]
  Plant response rating, Foxtail, Green: 70
[16]; [30]
  Plant response rating, Kochia: 90
[16]; [31]
  Plant response rating, Kochia: 90
[17]; [30]
  Plant response rating, Oat, Wild: 10
[17]; [31]
  Plant response rating, Oat, Wild: 20
[18]; [30]
  Plant response rating, Pigweed, Palmer: 100
[18]; [31]
  Plant response rating, Pigweed, Palmer: 100
[19]; [30]
  Plant response rating, Ragweed: 30
[19]; [31]
  Plant response rating, Ragweed: 80
[20]; [30]
  Plant response rating, Ryegrass, Italian: 30
[20]; [31]
  Plant response rating, Ryegrass, Italian: 60
[21]; [30]
  Plant response rating, Soybean: 100
[21]; [31]
  Plant response rating, Soybean: 100
[22]; [30]
  Plant response rating, Wheat: 20
[22]; [31]
  Plant response rating, Wheat: 20
[23]; [30]
  Plant response rating, Horseweed: 20
[23]; [31]
  Plant response rating, Horseweed: 30
[24]
  Plant response rating, Barnyardgrass (Flood): 20
[25]
  Plant response rating, Ducksalad (Flood): 90
[26]
  Plant response rating, Rice (Flood): 0
[27]
  Plant response rating, Sedge, Umbrella (Flood): 100

Reference: patent US20260262643A1, “HERBICIDAL BENZOXAZINES” (FMC CORPORATION, priority 2022, published 2026)
